Source: PubChem BioAssay (NCI)
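Compound exposure: 48 hours, 5 concentrations, 96-well plates. TGI: concentration producing complete growth inhibition.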

Columns and labels:
Assay in all cases: NCI tumour cell line growth inhibition, 48 h
UO-31 renal = tested on: UO-31 renal
SW-620 colon = tested on: SW-620 colon
SNB-78 CNS = tested on: SNB-78 CNS
K-562 leukemia = tested on: K-562 leukemia
HOP-92 NSCLC = tested on: HOP-92 NSCLC
NCI-H522 lung = tested on: NCI-H522 lung
SK-MEL-5 melanoma = tested on: SK-MEL-5 melanoma
UACC-257 melanoma = tested on: UACC-257 melanoma
UACC-62 melanoma = tested on: UACC-62 melanoma
M19-MEL melanoma = tested on: M19-MEL melanoma
SF-295 CNS = tested on: SF-295 CNS
786-0 renal = tested on: 786-0 renal
HT29 colon = tested on: HT29 colon
LOX IMVI melanoma = tested on: LOX IMVI melanoma
HCT-15 colon = tested on: HCT-15 colon
COLO 205 colon = tested on: COLO 205 colon
ACHN renal = tested on: ACHN renal
U251 CNS = tested on: U251 CNS
M14 melanoma = tested on: M14 melanoma
DMS 273 small cell lung = tested on: DMS 273 small cell lung
LXFL 529 NSCLC = tested on: LXFL 529 NSCLC
RPMI-8226 leukemia = tested on: RPMI-8226 leukemia
SK-OV-3 ovarian = tested on: SK-OV-3 ovarian
OVCAR-8 ovarian = tested on: OVCAR-8 ovarian
SK-MEL-28 melanoma = tested on: SK-MEL-28 melanoma
OVCAR-3 ovarian = tested on: OVCAR-3 ovarian
SF-539 CNS = tested on: SF-539 CNS
DLD-1 colon = tested on: DLD-1 colon
OVCAR-5 ovarian = tested on: OVCAR-5 ovarian
HCC-2998 colon = tested on: HCC-2998 colon
HOP-62 NSCLC = tested on: HOP-62 NSCLC
EKVX NSCLC = tested on: EKVX NSCLC
IGROV1 ovarian = tested on: IGROV1 ovarian
MALME-3M melanoma = tested on: MALME-3M melanoma
SN12C renal = tested on: SN12C renal
DMS 114 small cell lung = tested on: DMS 114 small cell lung
HL-60(TB) leukemia = tested on: HL-60(TB) leukemia
NCI-H460 lung = tested on: NCI-H460 lung
RXF 393 renal = tested on: RXF 393 renal
NCI-H23 lung = tested on: NCI-H23 lung
KM20L2 colon = tested on: KM20L2 colon
RXF-631 renal = tested on: RXF-631 renal
NCI-H226 lung = tested on: NCI-H226 lung
OVCAR-4 ovarian = tested on: OVCAR-4 ovarian
A549 NSCLC = tested on: A549 NSCLC
SF-268 CNS = tested on: SF-268 CNS
A498 renal = tested on: A498 renal
CCRF-CEM leukemia = tested on: CCRF-CEM leukemia
SNB-19 CNS = tested on: SNB-19 CNS
TK-10 renal = tested on: TK-10 renal
KM12 colon = tested on: KM12 colon
SNB-75 CNS = tested on: SNB-75 CNS
HCT-116 colon = tested on: HCT-116 colon
CAKI-1 renal = tested on: CAKI-1 renal
SK-MEL-2 melanoma = tested on: SK-MEL-2 melanoma
MDA-MB-435 = tested on: MDA-MB-435
MDA-N = tested on: MDA-N
PC-3 prostate = tested on: PC-3 prostate
DU-145 prostate = tested on: DU-145 prostate
MOLT-4 leukemia = tested on: MOLT-4 leukemia
MCF7 breast = tested on: MCF7 breast
T-47D breast = tested on: T-47D breast
MDA-MB-231 breast = tested on: MDA-MB-231 breast
SR leukemia = tested on: SR leukemia
NCI/ADR-RES ovarian = tested on: NCI/ADR-RES ovarian
HS 578T breast = tested on: HS 578T breast
BT-549 breast = tested on: BT-549 breast

For `O=C(CC(=O)C1CCOC1=O)C(=O)Nc1ccc(Cl)cc1` (stereo not drawn), the TGI (UO-31 renal) was > 100 µM, the TGI (SW-620 colon) was > 100 µM and the TGI (SNB-78 CNS) was > 100 µM. The TGI (K-562 leukemia) was > 100 µM, the TGI (HOP-92 NSCLC) was > 100 µM and the TGI (NCI-H522 lung) was > 100 µM. The TGI (SK-MEL-5 melanoma) was > 100 µM, the TGI (UACC-257 melanoma) was > 100 µM and the TGI (UACC-62 melanoma) was > 100 µM. For the same compound, the TGI (M19-MEL melanoma) was > 100 µM, the TGI (SF-295 CNS) was > 100 µM and the TGI (786-0 renal) was > 100 µM. The TGI (HT29 colon) was > 100 µM, the TGI (LOX IMVI melanoma) was > 100 µM and the TGI (HCT-15 colon) was > 100 µM. The TGI (COLO 205 colon) was > 100 µM, the TGI (ACHN renal) was > 100 µM and the TGI (U251 CNS) was > 100 µM. For the same compound, the TGI (M14 melanoma) was > 100 µM, the TGI (DMS 273 small cell lung) was > 100 µM and the TGI (LXFL 529 NSCLC) was > 100 µM. For the same compound, the TGI (RPMI-8226 leukemia) was > 100 µM, the TGI (SK-OV-3 ovarian) was > 100 µM and the TGI (OVCAR-8 ovarian) was > 100 µM. For the same compound, the TGI (SK-MEL-28 melanoma) was > 100 µM, the TGI (OVCAR-3 ovarian) was > 100 µM and the TGI (SF-539 CNS) was > 100 µM. The TGI (DLD-1 colon) was > 100 µM, the TGI (OVCAR-5 ovarian) was > 100 µM and the TGI (HCC-2998 colon) was > 100 µM. For the same compound, the TGI (HOP-62 NSCLC) was > 100 µM, the TGI (EKVX NSCLC) was > 100 µM and the TGI (IGROV1 ovarian) was > 100 µM. The TGI (MALME-3M melanoma) was > 100 µM, the TGI (SN12C renal) was > 100 µM and the TGI (DMS 114 small cell lung) was > 100 µM. The TGI (HL-60(TB) leukemia) was > 100 µM, the TGI (NCI-H460 lung) was > 100 µM and the TGI (RXF 393 renal) was > 100 µM. The TGI (NCI-H23 lung) was > 100 µM, the TGI (KM20L2 colon) was > 100 µM and the TGI (RXF-631 renal) was > 100 µM. The TGI (NCI-H226 lung) was > 100 µM, the TGI (OVCAR-4 ovarian) was > 100 µM and the TGI (A549 NSCLC) was > 100 µM. The TGI (SF-268 CNS) was > 100 µM, the TGI (A498 renal) was > 100 µM and the TGI (CCRF-CEM leukemia) was > 100 µM. For the same compound, the TGI (SNB-19 CNS) was > 100 µM, the TGI (TK-10 renal) was > 100 µM and the TGI (KM12 colon) was > 100 µM. For the same compound, the TGI (SNB-75 CNS) was > 100 µM, the TGI (HCT-116 colon) was > 100 µM and the TGI (CAKI-1 renal) was > 100 µM. For the same compound, the TGI (SK-MEL-2 melanoma) was > 100 µM.
`CC1(C)CC2(C)ON=C(c3ccccc3)N2c2ccccc2N1` (stereo not drawn) was tested, and the TGI (UO-31 renal) was 43.6 µM, the TGI (SW-620 colon) was > 100 µM and the TGI (K-562 leukemia) was 52.3 µM. The TGI (HOP-92 NSCLC) was 61.4 µM, the TGI (MDA-MB-435) was 39.8 µM and the TGI (MDA-N) was 47.9 µM. It also gave a TGI (NCI-H522 lung) of 47.3 µM, a TGI (SK-MEL-5 melanoma) of 30.7 µM and a TGI (UACC-257 melanoma) of 58.3 µM. The TGI (UACC-62 melanoma) was 27.9 µM, the TGI (PC-3 prostate) was 42.1 µM and the TGI (SF-295 CNS) was > 100 µM. For the same compound, the TGI (786-0 renal) was 57.3 µM, the TGI (HT29 colon) was 29.9 µM and the TGI (DU-145 prostate) was > 100 µM. The TGI (LOX IMVI melanoma) was 33.8 µM, the TGI (HCT-15 colon) was > 100 µM and the TGI (COLO 205 colon) was 45.9 µM. It also gave a TGI (ACHN renal) of 68.8 µM, a TGI (U251 CNS) of 41.1 µM and a TGI (M14 melanoma) of 40.6 µM. The TGI (RPMI-8226 leukemia) was 93 µM, the TGI (SK-OV-3 ovarian) was 53 µM and the TGI (OVCAR-8 ovarian) was > 100 µM. For the same compound, the TGI (SK-MEL-28 melanoma) was 57.5 µM, the TGI (OVCAR-3 ovarian) was 33.7 µM and the TGI (SF-539 CNS) was 40.1 µM. For the same compound, the TGI (MOLT-4 leukemia) was 75.6 µM, the TGI (OVCAR-5 ovarian) was > 100 µM and the TGI (HCC-2998 colon) was > 100 µM. The TGI (HOP-62 NSCLC) was 37 µM, the TGI (EKVX NSCLC) was 77 µM and the TGI (MCF7 breast) was 47 µM. The TGI (IGROV1 ovarian) was > 100 µM, the TGI (MALME-3M melanoma) was 55.3 µM and the TGI (T-47D breast) was 56.7 µM. For the same compound, the TGI (SN12C renal) was 84 µM, the TGI (HL-60(TB) leukemia) was 56.4 µM and the TGI (NCI-H460 lung) was 46.9 µM. The TGI (RXF 393 renal) was 54.5 µM, the TGI (NCI-H23 lung) was 82.1 µM and the TGI (NCI-H226 lung) was 42.8 µM. For the same compound, the TGI (OVCAR-4 ovarian) was > 100 µM, the TGI (MDA-MB-231 breast) was 28.7 µM and the TGI (A549 NSCLC) was > 100 µM. For the same compound, the TGI (SF-268 CNS) was 48.2 µM, the TGI (SR leukemia) was > 100 µM and the TGI (NCI/ADR-RES ovarian) was 74.6 µM. For the same compound, the TGI (HS 578T breast) was 42.6 µM, the TGI (A498 renal) was 54.4 µM and the TGI (CCRF-CEM leukemia) was > 100 µM. For the same compound, the TGI (SNB-19 CNS) was 68.1 µM, the TGI (TK-10 renal) was 91.8 µM and the TGI (BT-549 breast) was 36.9 µM. For the same compound, the TGI (KM12 colon) was > 100 µM, the TGI (SNB-75 CNS) was 94.9 µM and the TGI (HCT-116 colon) was 28 µM. It also gave a TGI (CAKI-1 renal) of 60.2 µM and a TGI (SK-MEL-2 melanoma) of 40.1 µM.
For `C=CC[C@H]1[C@H](O[Si](C)(C)C(C)(C)C)C=CC(=O)[C@@H]1CC(=O)OCC`, the TGI (UO-31 renal) was 25.6 µM, the TGI (SW-620 colon) was 33 µM and the TGI (K-562 leukemia) was 20.4 µM. The TGI (HOP-92 NSCLC) was 24.2 µM, the TGI (MDA-MB-435) was 26.4 µM and the TGI (MDA-N) was 29.1 µM. The TGI (NCI-H522 lung) was 26.1 µM, the TGI (SK-MEL-5 melanoma) was 22.9 µM and the TGI (UACC-257 melanoma) was 17.9 µM. It also gave a TGI (UACC-62 melanoma) of 24.1 µM, a TGI (PC-3 prostate) of 21.3 µM and a TGI (SF-295 CNS) of 27.8 µM. It also gave a TGI (786-0 renal) of 27.6 µM, a TGI (HT29 colon) of 21.2 µM and a TGI (DU-145 prostate) of 32.8 µM. It also gave a TGI (LOX IMVI melanoma) of 32 µM, a TGI (HCT-15 colon) of 26.6 µM and a TGI (COLO 205 colon) of 28.6 µM. The TGI (ACHN renal) was 27.2 µM, the TGI (U251 CNS) was 27.8 µM and the TGI (M14 melanoma) was 25.3 µM. It also gave a TGI (RPMI-8226 leukemia) of 12.2 µM, a TGI (SK-OV-3 ovarian) of 34.1 µM and a TGI (OVCAR-8 ovarian) of 31.6 µM. For the same compound, the TGI (SK-MEL-28 melanoma) was 34.6 µM, the TGI (OVCAR-3 ovarian) was 26.4 µM and the TGI (SF-539 CNS) was 30.8 µM. The TGI (MOLT-4 leukemia) was 48 µM, the TGI (OVCAR-5 ovarian) was 27.1 µM and the TGI (HCC-2998 colon) was 25.5 µM. The TGI (HOP-62 NSCLC) was 34.5 µM, the TGI (EKVX NSCLC) was 24.2 µM and the TGI (MCF7 breast) was 23.7 µM. The TGI (IGROV1 ovarian) was 32.8 µM, the TGI (MALME-3M melanoma) was 25.9 µM and the TGI (T-47D breast) was 24.7 µM. For the same compound, the TGI (SN12C renal) was 29.9 µM, the TGI (HL-60(TB) leukemia) was 24.8 µM and the TGI (NCI-H460 lung) was 27.6 µM. The TGI (RXF 393 renal) was 25.7 µM, the TGI (NCI-H23 lung) was 33.6 µM and the TGI (NCI-H226 lung) was 29.2 µM. The TGI (OVCAR-4 ovarian) was 25.2 µM, the TGI (MDA-MB-231 breast) was 27.6 µM and the TGI (A549 NSCLC) was 23.9 µM. For the same compound, the TGI (SF-268 CNS) was 28.9 µM, the TGI (SR leukemia) was 41.7 µM and the TGI (NCI/ADR-RES ovarian) was 24.4 µM. The TGI (HS 578T breast) was 43.4 µM, the TGI (A498 renal) was 26.6 µM and the TGI (CCRF-CEM leukemia) was 29.9 µM. The TGI (SNB-19 CNS) was 25.7 µM, the TGI (TK-10 renal) was 28 µM and the TGI (BT-549 breast) was 30.3 µM. It also gave a TGI (KM12 colon) of 27.2 µM, a TGI (SNB-75 CNS) of 30.1 µM and a TGI (HCT-116 colon) of 23.5 µM. The TGI (CAKI-1 renal) was 25.1 µM and the TGI (SK-MEL-2 melanoma) was 28.1 µM.
